Measurements: US20090124631A1, “Combination Therapy” (priority 2007, published 2009)
Entries after “also recorded” stand apart in the source; their conditions may differ.

Assays:
[1] = tested on: histone H3 acetylation in human bladder carcinoma T24 cells; test: Cell-based ELISA for H3 acetylation
Experimental: (§1) Bladder carcinoma T24 cells were seeded in black plates with clear bottoms (Costar #3603) at 1×10^4 cells per well in a volume of 100 μl per well, and were allowed to settle for one day at 37° C. in a CO2 incubator. The cells were treated for 16 h with various concentrations of HDAC inhibitors. 3 h before the end of the treatment, Alamar Blue (BioSource) was added to monitor cell viability according to the manufacturer's instructions. At the end of the treatment time, Alamar Blue OD (at 570 nm and 600 nm) was recorded, then the cells were carefully washed in PBS, fixed in pre-chilled methanol for 10 min at −20° C., washed again twice in PBS, and blocked in PBS containing 0.1% Triton X-100 and 1% BSA for a minimum of 30 min. For H3 acetylation, rabbit-anti-acetyl-H3 (Upstate #06-599) was used as primary antibody at a dilution of 1:1000 for 45 min; the secondary antibody was HRP-coupled goat-anti-rabbit (Sigma #A-0545), used at 1:8000 for 45 min. For tubulin acetylation, the primary antibody was mouse anti-acetyl-tubulin (Sigma #T-6793, 1:2000, 45 min) while the secondary was HRP-coupled goat-anti-mouse antibody (Sigma #A-2304, 1:8000, 45 min). All antibodies were diluted in blocking buffer, and the cells were washed in blocking buffer following each antibody incubation. […] The fluorescent signal for acetylation was normalized by dividing with the viability data obtained from Alamar Blue. EC50 was defined as the concentration of compound which gave a signal half-way between the basal (untreated) level and the maximum level generated by high doses of the HDAC pan-inhibitor NVP-LAQ-824.

[2] = tested on: tubulin acetylation in human bladder carcinoma T24 cells; test: Cell-based ELISA for tubulin acetylation
Experimental: as §1

[3] = tested on: bFGF transcription in human prostate cancer Du145 cells; test: bFGF transcription in Du145 cells in vitro; type: cell-based; conditions: 3 μM, 24 hour treatment
Experimental: (§2) Human prostate cancer Du145 cells were exposed to Cpd A or SAHA (3 microM) for 24 hours. Total RNA was collected by Isogen (Nippongene, Tokyo, Japan) and reverse-transcribed to cDNA by ExScript® RT reagent Kit (TAKARA, Kyoto, Japan). The expression level of bFGF mRNA was detected by ABI7700 analyzer using probe/primer pre-mixture reagent (ABI, Cat# Hs00266645_m1, CA, USA) and TaqMan® Universal PCR Master Mix (ABI, Cat# 430-4437) as described in the ABI's protocol. The expression level of VEGF mRNA was detected in a similar manner using the appropriate probe/primer reagents.

[4] = tested on: VEGF expression in DU145 cells; test: VEGF transcription in Du145 cells in vitro; type: cell-based, human; conditions: 24 hour treatment
Experimental: as §2

[5] = tested on: co-cultured human endothelial cells; test: Human multicellular angiogenesis model (AngioKit); type: cell-based; conditions: AngioKit, 30, 100 and 300 nM
Experimental: Briefly, 24 well plates were seeded with cells on day 0 and medium was changed on days 3, 4, 7, 10 and 12. […] All AngioKits were then fixed and stained on day 14, using the CD31 Staining Kits according to the standard AngioKit procedure. Comparison of tubule development was conducted using the “AngioSys” image analysis system developed specifically for the analysis of images produced using the AngioKit. Four images taken from predetermined positions within each well were recorded. Each concentration of test compound therefore yielded […] for analysis in duplicate. Images were always taken from as close to the centre of each quadrant as possible. Four tubule parameters were measured: total tubule length, total tubule area, number of branch points and number of tubules formed. All statistical analyses were carried out using the Stat 100 programme from BIOSOFT Ltd. using ANOVA and Duncan's Multiple Comparison Test to measure differences between the test compounds with the untreated control values. Alpha was always 0.05 unless otherwise stipulated.

[6] = tested on: MT3 transcription in human T-cell leukemia Jurkat-T cells; test: MT3 transcription in Jurkat-T cells, real time RT-PCR; type: cell-based; conditions: 24 hours
Experimental: Total RNAs were extracted from cell pellets or from tumors using QiaShredder and RNeasy mini kit (Qiagen). 1 μg RNA was converted into cDNA using Expand RT enzyme (Roche) and Oligo(dT) primers (Invitrogen) in a 20 μl reaction volume. For quantitative real-time PCR, the primers used for MT3 were [NT] and [NT] and those for β-actin were [NT] and [NT]. Reactions with either pair of primers included an annealing temperature of 63.4° C. All real-time PCR reactions were performed on the MasterCycler ep Realplex (Eppendorf) using FastStart SYBRGreen Master (Roche).

[7] = tested on: TSP-1 expression in cancer cells (Du145, H460, A549); test: TSP-1 transcription in cancer cells in vitro; type: cell-based, human; conditions: over time, 3 microM, 24 hours
Experimental: Cells were exposed by Cpd A or SAHA (3 microM) for 24 hours. Total RNA was collected by Isogen (Nippongene, Tokyo, Japan) and reverse-transcribed to cDNA by ExScript® RT reagent Kit (TAKARA, Kyoto, Japan). The expression level of TSP-1 mRNA was detected by ABI7700 analyzer using a probe/primer pre-mixture reagent (ABI, Cat#, CA, USA) and TaqMan® Universal PCR Master Mix (ABI, Cat# 430-4437) as described in the ABI's protocol.

[8] = tested on: VEGF expression in A549 (NSCLC) xenografts; test: VEGF expression in A549 xenografts; type: in vivo; conditions: 150 mg/kg, p.o., qdx3
[9] = tested on: bFGF expression in A549 (NSCLC) xenografts; test: bFGF expression in A549 xenografts; type: in vivo; conditions: 150 mg/kg, p.o., qdx3
[10] = tested on: human H460 non-small cell lung tumor xenograft; test: H460 xenograft, iv-iv combination with taxol; type: in vivo, mouse; conditions: H460, Compound A 40 mg/kg i.v. with taxol 60 mg/kg i.v., single dose day 1
Experimental: Antitumor studies were done using human H460 non-small cell lung tumor xenograft model in male BALBc/A nude mice (from Japan Crea Inc., Japan). Male nude mice were used at age 8-10 weeks. Human carcinoma cells were injected subcutaneously in the animal flank and allowed to form solid tumors. Tumor fragments (about 2 mm^3 fragments) were then removed and implanted subcutaneously to the right flank of other animals. […] Tumor volumes and gross body weight of animals were monitored twice weekly for up to 15 days. Each experimental group contained 6 animals.

[11] = tested on: MT3 transcription in human colon cancer HCT15 cells; test: MT3 transcription in HCT15 cells, microarray analysis; type: cell-based; conditions: 1 uM
Text: Total RNAs were extracted and RNA quality analysis was done using Agilent 2100 bioanalyzer and Agilent's RNA Labchip kits. RNAs were labeled with either Cy3 or Cy5 using Agilent's optimized labeling kits and hybridized to Human whole genome 44K Oligo Microarray (Agilent, Palo Alto, Calif.). Slides were scanned using DNA microarry scanner from Agilent and the raw data was extracted using Agilent's image analysis tool (feature extraction software). Normalization and statistical analysis were performed using GeneSpring software. Biological analysis was performed using Biointerpreter software.

SMILES	histone H3 acetylation [1]	tubulin acetylation [2]	bFGF transcription [3]	VEGF expression [4]	tubule length [5]	MT3 transcription [6]	TSP-1 expression [7]	VEGF expression [8]	bFGF expression [9]	antitumor activity of taxol [10]	MT3 transcription [11]
Nc1ccccc1NC(=O)c1ccc(CNc2nccc(-c3cccnc3)n2)cc1 [Compound A]	dose-dependent induction	but not tubulin acetylation	more dramatic than by SAHA; also recorded: suppression	suppression	inhibits	dose-dependent induction	induction	suppression	suppression	Potentiation	
Nc1ccc(-c2ccccc2)cc1NC(=O)c1ccc(N2CC[C@H](N)C2)cc1 [Compound D]											induction
